We go through one compound from US20100227841A1, “Patient populations and treatment methods” (Harbor BioSciencs, Inc., priority 2008, published 2010).

The structures appear in SMILES notation.

One assay concerns type 2 diabetes patients. Put plainly: Phase 2 monotherapy protocol in treatment naive type 2 diabetes patients. In kind it is in vivo, human. The protocol: A phase 2 clinical treatment protocol was conducted in type 2 diabetes patients using a monotherapy consisting of 17α-ethynylandrost-5-ene-3β,7β,17β-triol. The patients had not been treated with another antidiabetic agent or any insulin sensitizer such as metformin for at least 90 days before the start of dosing. […] The patients (n=51) received 10 mg/day of 17α-ethynylandrost-5-ene-3β,7β,17β-triol (5 mg twice per day) for 84 days and were then followed until day 112. Effects of treatment were examined in subsets of patients having differing BMI values.

Assay [1] relates to pre-diabetic hyperglycemic patients and patients having type 2 diabetes. Put plainly: Glucose clamp (M value) in 28-day clinical trial of oral capsules. It counts as in vivo, human. The protocol: Groups of pre-diabetic hyperglycemic patients and patients having type 2 diabetes were treated for 28 days with the experimental drug 17α-ethynylandrost-5-ene-3β,7β,17β-triol (oral capsules) or with placebo. […] Placebos were obtained with each treatment cohort based on protocol randomization of 2 treated:1 placebo. The pre-diabetic patients were obese (body mass index ≧29 kg/m^2) and glucose intolerant (fasting plasma glucose <126 mg/dL; 2-hr post prandial glucose 140-200 mg/dL after 75 g oral glucose). The diabetic patients were dosed with 10 mg/day for 28 days (n=6; cohort 6). […] Patients with an M value of <5 mg glucose/kg/min (M<5) were considered insulin resistant and patients with an M value of >5 mg glucose/kg/min (M>5) were considered insulin sensitive or essentially normal for whole body glucose metabolism.
The analysis of responders used standard analysis. Due to the cohort sizes and the ongoing basis of this clinical protocol, data for surrogates that corresponded to significance at p≦0.10 (trend) were considered positive evidence of surrogacy of the biomarker for the M<5 insulin resistant condition.

Turning to `C#C[C@]1(O)CC[C@H]2[C@@H]3[C@@H](O)C=C4C[C@@H](O)CC[C@]4(C)[C@H]3CC[C@@]21C` [17α-ethynylandrost-5-ene-3β,7β,17β-triol], the C-reactive protein result in the assay with type 2 diabetes patients (BMI greater than 31.3 kg/m^2, day 57, p=0.053) is listed as “trend to decreased”. The “patients with decreased HbA1c to <7%” value with type 2 diabetes patients (BMI greater than 31.3 kg/m^2, day 84, placebo 0/14) was 2/9. Moreover, the “decreases in serum MCP-1” value in the assay on type 2 diabetes patients (BMI greater than 31.3 kg/m^2, days 29, 57 and 84) was more than 600 pg/mL. In addition, the “observed effects in lower BMI subset” value with type 2 diabetes patients (patients having a BMI of less than about 31) was “less pronounced”. This compound also showed a HbA1c decrease with type 2 diabetes patients (patients with BMI greater than 31.3 kg/m^2 (n=22), 10 mg/day for 84 days, day 112, p=0.041) of 1.1%. This compound gave a minimal effective dose in assay [1] (28 days, lower degree of response than higher doses) of 4 mg/day. The “change in M value” was “increased” in assay [1] (interim analysis, M<5, two patients treated with 20 mg/day); “significantly increased” in assay [1] (interim analysis, M<5 patients, 10 mg/day (5 mg twice per day) vs placebo, p=0.0286); “significantly increased” in assay [1] (interim analysis, M<5 patients, pooled 10 mg/day or 20 mg/day vs placebo, p=0.0095); “no statistically significant difference” in assay [1] (interim analysis, M>5 patients, 10 mg/day, 20 mg/day or pooled vs placebo); “trends to significance” in assay [1] (interim analysis, overall protocol, 20 mg/day group, p=0.0823); “trends to significance” in assay [1] (interim analysis, overall protocol, 'mg/day group', p=0.0513). Further, the “change in M value” in assay [1] (interim analysis, overall protocol, pooled patients, p=0.0278) is “significantly increased”; in assay [1] (second interim analysis, M<5, 10 mg/day vs placebo, p=0.002) it was “significantly increased”; in assay [1] (second interim analysis, M<5, pooled 10 mg/day or 20 mg/day vs placebo, p=0.0007), “highly significant positive change”; in assay [1] (second interim analysis, M>5 patients, 10 mg/day, 20 mg/day or pooled vs placebo) it was “no statistically significant difference”; in assay [1] (second interim analysis, overall protocol, 10 mg/day group, p=0.04), “significantly increased”; in assay [1] (second interim analysis, overall protocol, 20 mg/day group, p=0.04), “significantly increased”. Also, in assay [1] (second interim analysis, overall protocol, pooled patients, p=0.0109), the “change in M value” is listed as “significantly increased”. In addition, the “M value (glucose control)” value in assay [1] (one pre-diabetic hyperglycemic patient, 28 days of dosing 4 mg/day) is given as “increased”. Besides, in assay [1] (pre-diabetic hyperglycemic patients having M<5), the “effectiveness of treatment by M value subgroup” value is given as “most effective”.
